Measured values as given in patent US12256764B2 (priority 2017, dated 2025).

Test system: rats
Experiment: Acute oral toxicity (LD50) in rats
Settings: conversion of the MSDS LD50

`OCC(O)CO` [Vegetable glycerin, glycerol] was tested, and the “LD50 oral rat dosage expressed for a 180 pound male” value was 36 ounces.
